Holding throughout (type): physicochemical
The nature of data set [1]: In vitro drug release through porous membrane, Franz diffusion cells. The conditions noted are these: within 24 hours of NPS application; 0.5% w/v Volpo in PBS (pH 7.4), 32° C. The protocol: In vitro drug release studies of KP-NPS, SP-NPS, SP+KP-NPS, KP-NPS-OA, SP-NPS-OA and SP+KP-NPS-OA were performed to investigate the amount of drug released from NPS or NPS-OA. A porous membrane of MWCO at 50,000 Da (SIGMA-ALDRICH Co., St. Louis, Mo.) was used. The membrane was mounted between the donor and receiver compartments of Franz diffusion cells (N. Ghouchi Eskandar, S. Simovic, C. Prestidge, Nanoparticle coated submicron emulsions: sustained in-vitro release and improved dermal delivery of All-trans-retinol, Pharm Res, 26 (2009) 1764-1775).
The NPS dispersion was applied evenly on the surface of the membrane in the donor compartment. […] At predetermined time intervals (e.g., 1, 2, 4, 6, 8, 12, 22, 24, 48 and 72 hours), 0.5 ml samples were collected from the receiver compartment and replaced with fresh buffer solution. The samples collected from receiver compartment were analyzed for drug content using the HPLC method.

Data set [2] is described as follows: Solubility test in selected receiver fluids.
Data set [3] is described as follows: Entrapment efficiency using vivaspin columns. Conditions: in NPS; unaffected by surface modification. The protocol: The NPS and NPS-OA (0.5 ml) were placed on top of the vivaspin centrifuge filter membrane and centrifuged at 4,500 rpm for fifteen (15) minutes. The amount of SP and KP present in the aqueous phase was estimated using HPLC.

Take `CC(C(=O)O)c1cccc(C(=O)c2ccccc2)c1` (centres unmarked) [KP, Ketoprofen]: the “release of drug from NPS” value in data set [1] was above 75%.
With Spantide II, the solubility result in data set [2] (0.1% w/v Volpo 20 in PBS (pH 7.4), 1 mg/ml) was “insoluble”; in data set [2] (0.5% w/v Volpo 20 in PBS (pH 7.4), 1 mg/ml), “soluble”; in data set [2] (5% w/v BSA in PBS (pH 7.4)) it was “soluble”; in data set [2] (SP and KP mixed together in PBS (pH 7.4) containing 10% w/v ethanol), “precipitation was observed”; in data set [2] (ethanol), “soluble”. Besides, the entrapment efficiency in data set [3] is 92.81%±2.17. In addition, the “release of drug from NPS” value in data set [1] was 34%.
